Measured values: the supplement of paper PMC10307832

Tests used:
Assay in all cases: relative viability (nuclei count vs DMSO), 5 days (fraction); higher = more cells survive
Nelarabine + Pictilisib = compound: COc1nc(N)nc2c1ncn2[C@@H]1O[C@H](CO)[C@@H](O)[C@@H]1O [Nelarabine] + CS(=O)(=O)N1CCN(Cc2cc3nc(-c4cccc5[nH]ncc45)nc(N4CCOCC4)c3s2)CC1 [Pictilisib] (partner 1 µM)
Procedure, shortened: (§1)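 A single step with final 0.05% Triton X-100, 1% formaldehyde and 1 ug/ml Hoechst fixed the cells and stained nuclei 5 days after treatment. Lung cancer cell lines in 1536-well plates had been treated by pin tool the day after seeding with one drug alone or a fixed anchor-drug dose plus five library-drug doses (not always all listed) in √10 steps, and nuclei were counted on 4× images. Relative viability is the ratio of nuclei in treated wells to nuclei in vehicle wells, taken as the median of duplicate plates.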

[1] = compound: C=CCn1c(=O)c2cnc(Nc3ccc(N4CCN(C)CC4)cc3)nc2n1-c1cccc(C(C)(C)O)n1 [Adavosertib] + CC(=O)c1c(C)c2cnc(Nc3ccc(N4CCNCC4)cn3)nc2n(C2CCCC2)c1=O [Palbociclib] (partner 0.5 µM)
Procedure, shortened: as §1

Adavosertib + Vorinostat = compound: C=CCn1c(=O)c2cnc(Nc3ccc(N4CCN(C)CC4)cc3)nc2n1-c1cccc(C(C)(C)O)n1 [Adavosertib] + O=C(CCCCCCC(=O)Nc1ccccc1)NO [Vorinostat] (partner 1 µM)
Procedure, shortened: as §1

Adavosertib + Linsitinib = compound: C=CCn1c(=O)c2cnc(Nc3ccc(N4CCN(C)CC4)cc3)nc2n1-c1cccc(C(C)(C)O)n1 [Adavosertib] + C[C@]1(O)C[C@@H](c2nc(-c3ccc4ccc(-c5ccccc5)nc4c3)c3c(N)nccn32)C1 [Linsitinib] (partner 1 µM)
Procedure, shortened: as §1

Adavosertib + Navitoclax = compound: C=CCn1c(=O)c2cnc(Nc3ccc(N4CCN(C)CC4)cc3)nc2n1-c1cccc(C(C)(C)O)n1 [Adavosertib] + CC1(C)CCC(c2ccc(Cl)cc2)=C(CN2CCN(c3ccc(C(=O)NS(=O)(=O)c4ccc(N[C@H](CCN5CCOCC5)CSc5ccccc5)c(S(=O)(=O)C(F)(F)F)c4)cc3)CC2)C1 [Navitoclax] (partner 0.5 µM)
Procedure, shortened: as §1

With EMC-BAC-2 the relative viability (Nelarabine + Pictilisib; first compound 0.01 µM) was 0.548, the relative viability (Nelarabine + Pictilisib; first compound 0.03162 µM) was 0.544 and the relative viability (Nelarabine + Pictilisib; first compound 0.1 µM) was 0.543. For the same cell line, the relative viability (Nelarabine + Pictilisib; first compound 0.3162 µM) was 0.558, the relative viability (Nelarabine + Pictilisib; first compound 1 µM) was 0.542 and the relative viability ([1]; first compound 0.03162 µM) was 0.542. For the same cell line, the relative viability ([1]; first compound 0.1 µM) was 0.516, the relative viability ([1]; first compound 0.3162 µM) was 0.487 and the relative viability (Adavosertib + Vorinostat; first compound 0.03162 µM) was 0.536. It also gave a relative viability (Adavosertib + Vorinostat; first compound 0.1 µM) of 0.431, a relative viability (Adavosertib + Vorinostat; first compound 0.3162 µM) of 0.396 and a relative viability (Adavosertib + Linsitinib; first compound 0.01 µM) of 0.823. For the same cell line, the relative viability (Adavosertib + Linsitinib; first compound 0.03162 µM) was 0.798, the relative viability (Adavosertib + Linsitinib; first compound 0.1 µM) was 0.862 and the relative viability (Adavosertib + Linsitinib; first compound 0.3162 µM) was 0.751. It also gave a relative viability (Adavosertib + Navitoclax; first compound 0.01 µM) of 1.22, a relative viability (Adavosertib + Navitoclax; first compound 0.03162 µM) of 1.12 and a relative viability (Adavosertib + Navitoclax; first compound 0.1 µM) of 1.2. The relative viability (Adavosertib + Navitoclax; first compound 0.3162 µM) was 1.19.
